Measured values reported in ChEMBL document CHEMBL1201862, “PubChem BioAssay data set” (2004).
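Five concentrations, 48 hours, 96-well plates. Abbreviation: GI50, concentration required for 50% inhibition of growth.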 Calls of active or inactive are those of the source. No stated cut-off is given here; in the data, active = GI50 up to about 1.1 µM and inactive = higher.

Columns and labels:
Assay in all cases: growth of human tumour cells (NCI), 48 h
IGROV-1 = system: IGROV-1
UACC-62 = system: UACC-62
M14 = system: M14
SF-539 = system: SF-539
OVCAR-3 = system: OVCAR-3
OVCAR-5 = system: OVCAR-5
RPMI-8226 = system: RPMI-8226
BT-549 = system: BT-549
Malme-3M = system: Malme-3M
HCC 2998 = system: HCC 2998
HCT-116 = system: HCT-116
PC-3 = system: PC-3
OVCAR-4 = system: OVCAR-4
MDA-N = system: MDA-N
SW-620 = system: SW-620
OVCAR-8 = system: OVCAR-8
SN12C = system: SN12C
CAKI-1 = system: CAKI-1
NCI/ADR-RES = system: NCI/ADR-RES
LOX IMVI = system: LOX IMVI

SMILES | GI50 (IGROV-1) | GI50 (UACC-62) | GI50 (M14) | GI50 (SF-539) | GI50 (OVCAR-3) | GI50 (OVCAR-5) | GI50 (RPMI-8226) | GI50 (BT-549) | GI50 (Malme-3M) | GI50 (HCC 2998) | GI50 (HCT-116) | GI50 (PC-3) | GI50 (OVCAR-4) | GI50 (MDA-N) | GI50 (SW-620) | GI50 (OVCAR-8) | GI50 (SN12C) | GI50 (CAKI-1) | GI50 (NCI/ADR-RES) | GI50 (LOX IMVI)
O=C1CCCCC1=C(I)I | 15.5 µM (inactive) | 17.1 µM (inactive) | 18 µM (inactive) | 19.5 µM (inactive) | 16.3 µM (inactive) | 17.5 µM (inactive) | 15.1 µM (inactive) | 13 µM (inactive) | 14.3 µM (inactive) | 15.8 µM (inactive) | 16.6 µM (inactive) | 16.5 µM (inactive) | 12.1 µM (inactive) | 16.9 µM (inactive) | 17.4 µM (inactive) | 33.9 µM (inactive) | 23.7 µM (inactive) |  |  | 
O=C(CC(=O)N1N=C(N2c3ccccc3Sc3ccccc32)CC1c1ccccc1)Nc1ccccc1Cl (configuration not stated) | > 100 µM (inactive) | > 100 µM (inactive) | > 100 µM (inactive) | > 100 µM (inactive) | > 100 µM (inactive) | > 100 µM (inactive) | > 100 µM (inactive) | > 100 µM (inactive) |  | > 100 µM (inactive) | > 100 µM (inactive) | > 100 µM (inactive) | > 100 µM (inactive) |  | > 100 µM (inactive) | > 100 µM (inactive) | > 100 µM (inactive) | > 100 µM (inactive) | > 100 µM (inactive) | 
O=C(Nc1ccc(C(F)(F)F)cc1[N+](=O)[O-])c1cccnc1 | 6.44 µM (inactive) | 3.76 µM (inactive) | 5.09 µM (inactive) | 3.37 µM (inactive) | 2.41 µM (inactive) | 73.5 µM (inactive) | 5.08 µM (inactive) | 7.06 µM (inactive) | 2.15 µM (inactive) | > 100 µM (inactive) | 7.24 µM (inactive) |  | 4.43 µM (inactive) |  | 3.14 µM (inactive) |  | 7.83 µM (inactive) | 2.81 µM (inactive) | 6.9 µM (inactive) | 7.31 µM (inactive)
N#Cc1sc2c(c1OC(=O)c1ccc(C(F)(F)F)cc1)c(=O)n(-c1ccccc1)c(=S)n2-c1ccccc1 | 21.2 µM (inactive) | 22.4 µM (inactive) | 24.2 µM (inactive) | 25.2 µM (inactive) | 19.5 µM (inactive) | 49.2 µM (inactive) | 17.4 µM (inactive) |  | 33 µM (inactive) | 34.4 µM (inactive) | 17.8 µM (inactive) | 26.7 µM (inactive) | 33.8 µM (inactive) | 29.5 µM (inactive) | 40.2 µM (inactive) | 23.2 µM (inactive) | 29.5 µM (inactive) | 32.4 µM (inactive) | 27.9 µM (inactive) | 24.5 µM (inactive)
O=C1c2cccc3cc([N+](=O)[O-])cc(c23)C(=O)N1Nc1ccc([N+](=O)[O-])cc1[N+](=O)[O-] | 12.4 µM (inactive) | 13.6 µM (inactive) | 24.7 µM (inactive) | 10.6 µM (inactive) | 22.3 µM (inactive) | > 70.5 µM (inactive) | 12.8 µM (inactive) | 19.4 µM (inactive) | 20.1 µM (inactive) | 14 µM (inactive) | 10.9 µM (inactive) | 17.9 µM (inactive) | 19.3 µM (inactive) |  | 10 µM (inactive) | 13 µM (inactive) | 22.8 µM (inactive) | 15.1 µM (inactive) | 19.1 µM (inactive) | 10.5 µM (inactive)
COc1cc2c(/C=C3/C(=O)Nc4ccc(Cl)cc43)c(Cl)[nH]c2cc1C | 0.368 µM (active) | 0.288 µM (active) | 0.962 µM (active) | 0.232 µM (active) | 0.356 µM (active) | 3.27 µM (inactive) | 0.91 µM (active) | 0.181 µM (active) | 0.82 µM (active) |  | 0.794 µM (active) | 0.505 µM (active) | 0.818 µM (active) |  | 0.596 µM (active) | 1.73 µM (inactive) | 0.325 µM (active) | 0.39 µM (active) | 0.662 µM (active) | 0.738 µM (active)
